Like-named read-outs stand apart in the source and are kept apart here.
What was measured:
[1] = test system: psychomotor seizures induced by a 32 mA, 6 Hz stimulus in mice; settings: 0.5 h, i.p.; own data disclosed in Abram et al. Bioorg. Chem. 2021; in mg/kg; cited from earlier work
[2] = test system: pentylenetetrazole-induced clonic seizures in mice; settings: 0.5 h, i.p.; own data disclosed in Abram et al. Bioorg. Chem. 2021; in mg/kg; cited from earlier work
[3] = mouse, in vivo, po, 40 mg/kg
Description: The animals were housed at a temperature of 22-24° C., humidity of 50% (+/−10%), in a room providing 15 air changes per hour, with 12:12 hours light-dark cycle. In addition, they had constant access to food and water. […] Blood was allowed to clot at room temperature for 20 min, then centrifuged for 5 min, 10,000×g (Eppendorf miniSpin centrifuge, Germany) to obtain serum. The obtained biological material was stored at −70° C. until analysis.
Concentrations of the tested compounds in murine serum and brain homogenates were determined by high-performance liquid chromatography-tandem mass spectrometry (HPLC-MS/MS). Analyzes were performed on a Sciex QTRAP 4500 triple quad mass spectrometer coupled to an Exion LC AC HPLC (Danaher Corporation, USA). The chromatographic separation was carried out on a Hypersil Gold™ C18 column (3×50 mm, 5 μm, Thermo Scientific, USA), using a mixture of acetonitrile and water with 0.1% formic acid as the mobile phase. Analyzes were performed at 40° C. and the gradient shown in Table 7 was used to obtain optimal retention time. Valsartan was used as an internal standard. Positive ionization mode (ESI+) was used for maximum sensitivity. […]
Non-compartmental analysis was used to estimate the pharmacokinetic parameters. Maximum concentration (Cmax) and time necessary to reach maximum blood concentration-tmax were evaluated directly from the concentration-time plot.

[4] = test system: maximal electroshock seizures in mice; experiment: Maximal electroshock seizure test (MES); assay type: in vivo
Description: (§1) Initial screening was performed on groups of 4 mice. The mean effective dose (ED50) in a given test and the neurotoxic dose in the rotarod test (TD50) were estimated on the basis of the results obtained on 3-4 groups of animals consisting of 6 animals.
In the maximal electroshock seizure test (MES), the seizures were induced by 500 V, 25 mA electrical stimulus of 0.2 s in duration. The electrical pulse was generated using an electric shock generator (Rodent shocker, Type 221, Hugo Sachs Elektronik, Germany) and delivered to the animal using electrodes placed on the auricles. The study was conducted 30 minutes/2 hours after intraperitoneal administration of the compounds at various doses. During the experiment, the number of animals that experienced a seizure episode in the form of hindlimb tonic extension was counted (Łuszczki, J.J. et al. Fundam. Clin. Pharmacol. 2008, 22, 69-74).
(§2) The ED50 (effective dose) and TD50 (toxic dose) values along with the corresponding 95% confidence limits were calculated based on the Litchfield and Wilcoxon method (Litchfield, J.T.; Wilcoxon, F. J. Pharmacol. Exp. Ther. 1949, 96, 99-113). To perform a statistical evaluation of the results in the scPTZ test, one-way ANOVA variance analysis followed by Dunnett's post hoc test were used. The values were considered statistically significant if p<0.05.

[5] = test system: psychomotor seizures induced by a 32 mA, 6 Hz stimulus in mice; experiment: Psychomotor seizure test 6 Hz (32 mA); assay type: in vivo
Description: as §1
(§3) In the psychomotor seizure test (6 Hz test), seizures were induced by a 32 mA and/or 44 mA electrical stimulus of a frequency of 6 pulses per second. An electrical pulse was generated using an electric shock generator (ECT Unit 57800; Ugo Basile, Gemonio, Italy) and delivered to the animal using corneal electrodes. Before starting the test, the eye surface was gently moistened with a solution of local anesthetic (1% lidocaine solution). The study was conducted 30 minutes/2 hours after intraperitoneal administration of the compounds at various doses. An electrical stimulus was delivered continuously for a period of 3 seconds, followed by observation of the animal for a period of 10 seconds. During the experiment, the number of animals with an episode of psychomotor convulsions was counted: motor inhibition, staggering, maintaining a sitting posture, forelimb clonus, twitching of the vibrissae and Straub-tail were observed (Leclercq, K.; Kaminski, R.M. Epilepsia 2015, 56, 310-318).
as §2

[6] = test system: psychomotor seizures induced by a 44 mA, 6 Hz stimulus in mice; experiment: Psychomotor seizure test 6 Hz (44 mA); assay type: in vivo; settings: in mg/kg
Description: as §1, §3, §2

[7] = test system: motor coordination of mice; experiment: Rotarod test (motor coordination, acute neurotoxicity); assay type: in vivo; settings: in mg/kg
Description: as §1
The effect of the tested compounds on motor coordination was assessed in the rotarod test (May Commat, RR 0711 RotaRod, Turkey). The day before the actual experiment, the mice were trained on a rod rotating at 10 revolutions per minute (rpm) for 3 minutes. The experiment was performed 30 minutes and 2 hours after administration of the compounds. The motor coordination of the animals was tested at the speed of the rotating rod: 10 rpm for 60 seconds. The measure of neurotoxicity was the inability to stay on the rod for a given time (Łuszczki, J.J. et al. Eur. Neuropsychopharmacol. 2005, 6, 609-616).
as §2

[8] = test system: human liver microsomes (HLMs); experiment: In vitro metabolic stability, human liver microsomes; assay type: in vitro ADME; settings: 120-minute incubation with HLMs
Description: Metabolic stability assessment was performed using mouse (MLMs) and human (HLMs) liver microsomes purchased from Sigma-Aldrich (St. Louis, MO, USA). The detailed methodology is described in the literature (Kamiński et al. J. Med. Chem. 2015, 58, 5274-5286). The reaction mixture was prepared by mixing […] of the tested compound with mouse or human microsomes (1 mg/mL) in 10 mM TRIS-HCl buffer. The reaction mixture was pre-incubated for 5 min at 37° C. After the initial incubation, 50 μL of the NADPH Regeneration System (Promega, Madison, WI, USA) was added to initiate the reaction. The reaction mixture was then incubated for 120 min at 37° C. 200 μL of cold extra pure methanol was added to complete the reaction. The mixture was then centrifuged at 14,000 g for 15 min and the supernatants were analyzed using a Waters ACQUITY™ TQD LC/MS system with a TQ detector (Waters, Milford, USA). Each experiment was performed in triplicate.

[9] = test system: motor coordination of mice; settings: in vivo; cited from earlier work
[10] = test system: spontaneous locomotor activity of mice; settings: mouse, in vivo; cited from earlier work
[11] = test system: human liver microsomes (HLMs); settings: cited from earlier work
[12] = biological target: CYP3A4 (Homo sapiens, UniProt P08684); settings: cited from earlier work
Chain of CYP3A4 (P08684 whole entry): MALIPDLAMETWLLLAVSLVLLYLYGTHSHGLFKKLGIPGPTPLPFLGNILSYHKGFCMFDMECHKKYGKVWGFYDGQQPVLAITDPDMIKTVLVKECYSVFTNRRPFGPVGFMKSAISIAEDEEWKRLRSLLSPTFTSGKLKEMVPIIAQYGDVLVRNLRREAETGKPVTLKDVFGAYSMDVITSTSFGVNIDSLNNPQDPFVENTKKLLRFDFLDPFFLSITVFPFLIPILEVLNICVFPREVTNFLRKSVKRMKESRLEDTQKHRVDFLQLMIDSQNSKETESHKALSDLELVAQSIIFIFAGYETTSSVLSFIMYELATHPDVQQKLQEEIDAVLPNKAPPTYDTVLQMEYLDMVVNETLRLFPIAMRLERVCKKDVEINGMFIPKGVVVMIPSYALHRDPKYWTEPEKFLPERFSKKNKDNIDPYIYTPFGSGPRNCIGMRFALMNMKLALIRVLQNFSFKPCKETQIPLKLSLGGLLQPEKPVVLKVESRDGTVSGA

[13] = test system: CYP2D9; settings: cited from earlier work
[14] = 0.5 h after i.p. administration
[15] = 2.0 h after i.p. administration

SMILES	ED50 6 Hz (32 mA) [1]	ED50 scPTZ [2]	tmax [3]	ED50 MES [4, 14]	ED50 MES [4, 15]	ED50 6 Hz (32 mA) [5, 14]	ED50 6 Hz (32 mA) [5, 15]	ED50 6 Hz (44 mA) [6, 14]	ED50 6 Hz (44 mA) [6, 15]	TD50 Rotarod [7, 14]	TD50 Rotarod [7, 15]	metabolic stability [8]	effect on mouse motor coordination in the rotarod test [9]	sedative effect in spontaneous locomotor activity test on mice [10]	metabolic stability on human microsomes [11]	interaction with CYP3A4 isoform of cytochrome P-450 [12]	interaction with CYP2D9 isoform of cytochrome P-450 [13]
CCCC(CCC)C(=O)O [VPA, valproic acid]	130.6	239.4															
CC(C(=O)NCc1ccccc1F)N1C(=O)CCC1=O (centres unmarked) [Compound 2, reference compound]			30 min	23.6 mg/kg	73.3 mg/kg	16.7 mg/kg	38.1 mg/kg	78.3	86.8	>100	>300	high metabolic stability	minimal effect	no sedative effect	very high metabolic stability	no interaction	no interaction
